Tested on: 188146-221-R-J1-PDC complex spheroid viability
Test: Anticancer human tumor 188146-221-R-J1-PDC patient-derived colon adenocarcinoma cell line growth inhibition [POLQ]
Settings: for IC50: curve of first compound; for viability, T/C: stronger effect = lower value
Method in brief: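 PDC + HUVEC + MSC complex spheroids; POLQ inhibitors ± partner drugs; top conc. at/near clinical Cmax, else 10 microM (SN-38 1 microM), half-log dilutions; 37 degrees C, 5% CO2.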

[1] = second compound 0.0316 µM, first compound 0.0316 µM
[2] = second compound 0.0316 µM, first compound 0.1 µM
[3] = second compound 0.0316 µM, first compound 0.316 µM
[4] = second compound 0.0316 µM, first compound 1 µM
[5] = second compound 0.0316 µM, first compound 3.16 µM
[6] = second compound 0.0316 µM, first compound 10 µM
[7] = second compound 0.1 µM, first compound 0.0316 µM
[8] = second compound 0.1 µM, first compound 0.1 µM
[9] = second compound 0.1 µM, first compound 0.316 µM
[10] = second compound 0.1 µM, first compound 1 µM
[11] = second compound 0.1 µM, first compound 3.16 µM
[12] = second compound 0.1 µM, first compound 10 µM
[13] = second compound 0.316 µM, first compound 0.0316 µM
[14] = second compound 0.316 µM, first compound 0.1 µM
[15] = second compound 0.316 µM, first compound 0.316 µM
[16] = second compound 0.316 µM, first compound 1 µM
[17] = second compound 0.316 µM, first compound 3.16 µM
[18] = second compound 0.316 µM, first compound 10 µM
[19] = second compound 1 µM, first compound 0.0316 µM
[20] = second compound 1 µM, first compound 0.1 µM
[21] = second compound 1 µM, first compound 0.316 µM
[22] = second compound 1 µM, first compound 1 µM
[23] = second compound 1 µM, first compound 3.16 µM
[24] = second compound 1 µM, first compound 10 µM
[25] = second compound 3.16 µM, first compound 0.0316 µM
[26] = second compound 3.16 µM, first compound 0.1 µM
[27] = second compound 3.16 µM, first compound 0.316 µM
[28] = second compound 3.16 µM, first compound 1 µM
[29] = second compound 3.16 µM, first compound 3.16 µM
[30] = second compound 3.16 µM, first compound 10 µM
[31] = second compound 10 µM, first compound 0.0316 µM
[32] = second compound 10 µM, first compound 0.1 µM
[33] = second compound 10 µM, first compound 0.316 µM
[34] = second compound 10 µM, first compound 1 µM
[35] = second compound 10 µM, first compound 3.16 µM
[36] = second compound 10 µM, first compound 10 µM
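Also: spheroids exposed to compounds for seven days.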
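For viability, T/C in this document: 100% = DMSO vehicle control viability.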

C#Cc1c(F)ccc2cc(O)cc(-c3ncc4c(N5CC6CCC(C5)N6)nc(OCC56CCCN5CC(F)C6)nc4c3F)c12 (centres undefined) + COC1C(OC(N)=O)C(O)C(Oc2ccc3c(O)c(NC(=O)c4ccc(O)c(CC=C(C)C)c4)c(=O)oc3c2C)OC1(C)C
IC50 (second compound 0.0316 µM): > 10 µM | IC50 (second compound 0.1 µM): > 10 µM | IC50 (second compound 0.316 µM): > 10 µM | IC50 (second compound 1 µM): > 10 µM | IC50 (second compound 3.16 µM): > 10 µM | IC50 (second compound 10 µM): > 10 µM | viability, T/C [1]: 105% | viability, T/C [2]: 93.5% | viability, T/C [3]: 100% | viability, T/C [4]: 100% | viability, T/C [5]: 103% | viability, T/C [6]: 83.1% | viability, T/C [7]: 122% | viability, T/C [8]: 94% | viability, T/C [9]: 92.5% | viability, T/C [10]: 95.9% | viability, T/C [11]: 85.2% | viability, T/C [12]: 93.5% | viability, T/C [13]: 113% | viability, T/C [14]: 95.9% | viability, T/C [15]: 102% | viability, T/C [16]: 92.8% | viability, T/C [17]: 92.5% | viability, T/C [18]: 103% | viability, T/C [19]: 112% | viability, T/C [20]: 96.1% | viability, T/C [21]: 100% | viability, T/C [22]: 90.5% | viability, T/C [23]: 93.8% | viability, T/C [24]: 88.8% | viability, T/C [25]: 106% | viability, T/C [26]: 103% | viability, T/C [27]: 110% | viability, T/C [28]: 87.2% | viability, T/C [29]: 104% | viability, T/C [30]: 82.6% | viability, T/C [31]: 100% | viability, T/C [32]: 98.6% | viability, T/C [33]: 108% | viability, T/C [34]: 97.2% | viability, T/C [35]: 95.6% | viability, T/C [36]: 92.8%

CC1COCCN1c1cc(C2(O)CC3CCC(C2)O3)c2cnn(-c3ccn[nH]3)c2n1 (centres undefined) + Nc1ccc(C#CCN(C(=O)Cc2ncc(C(F)(F)F)cc2C(F)(F)F)c2ccc(F)cc2)nn1
IC50 (second compound 0.0316 µM): 0.328 µM | IC50 (second compound 0.1 µM): 0.35 µM | IC50 (second compound 0.316 µM): 0.249 µM | IC50 (second compound 1 µM): 0.288 µM | IC50 (second compound 3.16 µM): 0.289 µM | IC50 (second compound 10 µM): 0.209 µM | viability, T/C [1]: 88.7% | viability, T/C [2]: 76.8% | viability, T/C [3]: 49.4% | viability, T/C [4]: 27% | viability, T/C [5]: 18.9% | viability, T/C [6]: 8.36% | viability, T/C [7]: 109% | viability, T/C [8]: 77.2% | viability, T/C [9]: 54.2% | viability, T/C [10]: 29.2% | viability, T/C [11]: 18% | viability, T/C [12]: 8.08% | viability, T/C [13]: 105% | viability, T/C [14]: 72.1% | viability, T/C [15]: 44.2% | viability, T/C [16]: 24.3% | viability, T/C [17]: 17% | viability, T/C [18]: 7.87% | viability, T/C [19]: 95.8% | viability, T/C [20]: 70.5% | viability, T/C [21]: 52% | viability, T/C [22]: 24.3% | viability, T/C [23]: 15.6% | viability, T/C [24]: 8.87% | viability, T/C [25]: 89.9% | viability, T/C [26]: 80.7% | viability, T/C [27]: 43.9% | viability, T/C [28]: 26% | viability, T/C [29]: 18.2% | viability, T/C [30]: 7.84% | viability, T/C [31]: 87.7% | viability, T/C [32]: 66% | viability, T/C [33]: 41.4% | viability, T/C [34]: 21.1% | viability, T/C [35]: 18.1% | viability, T/C [36]: 7.06%

From PubChem BioAssay AID1963851 (Molecular Pharmacology Branch, DTP, NCI, 2024)
